One data set has as its target xanthine oxidase (Bos taurus, UniProt P80457). Briefly: Xanthine oxidase assay (lucigenin). The data set is classed as biochemical. Here is the method:
Xanthine oxidase activity was measured by lucigenin. Reaction mixtures contained 0.1 mU xanthine oxidase, 0.25 mM Xanthine, and 0.4 mM lucigenin with the indicated inhibitor (0–20 μM). Luminescence measured over 30 min at 37 °C with luminometor (DTX800, Beckman coulter).

A further data set deals with T1, human Nox1 (Homo sapiens, UniProt Q9Y5S8).
T1 construct: made in house; host or cells: transgenic Drosophila (Duox knockdown, Da-GAL4 driven UAS-hNOX1); membrane-enriched fly homogenate
T1 sequence (Q9Y5S8 1-564): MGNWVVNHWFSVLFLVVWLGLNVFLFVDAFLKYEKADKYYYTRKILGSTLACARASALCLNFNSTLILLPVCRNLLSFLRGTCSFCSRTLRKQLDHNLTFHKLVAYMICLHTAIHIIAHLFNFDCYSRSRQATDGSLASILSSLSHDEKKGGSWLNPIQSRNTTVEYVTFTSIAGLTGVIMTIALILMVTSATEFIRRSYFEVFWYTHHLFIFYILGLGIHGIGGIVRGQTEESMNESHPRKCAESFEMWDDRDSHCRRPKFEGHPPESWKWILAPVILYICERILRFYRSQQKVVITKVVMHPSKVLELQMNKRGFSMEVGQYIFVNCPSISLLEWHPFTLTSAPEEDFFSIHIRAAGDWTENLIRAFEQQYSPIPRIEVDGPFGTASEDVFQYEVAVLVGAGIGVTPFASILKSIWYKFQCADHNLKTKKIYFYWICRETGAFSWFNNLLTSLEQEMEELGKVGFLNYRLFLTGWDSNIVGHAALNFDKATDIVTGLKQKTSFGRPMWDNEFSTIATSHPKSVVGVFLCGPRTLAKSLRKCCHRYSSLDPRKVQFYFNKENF
The data set can be described thus: Nox inhibitor screening, Drosophila membranes over-expressing human Nox1, ROS chemiluminescence. The settings on record: hNox1 Drosophila membranes. The data set is classed as biochemical.

Another data set has as its target glucose oxidase (Aspergillus niger, UniProt P13006). Briefly: Glucose oxidase assay (lucigenin). It is filed as biochemical. How it is done: Glucose oxidase activity was measured by lucigenin. Reaction mixtures contained 0.75 mM glucose, 0.25 mg/ml glucose oxidase, and 0.4 mM lucigenin with the indicated inhibitor (0–20μM). Luminescence was measured over 30 min at 37 °C with luminometor (DTX800, Beckman coulter).

The target of the next data set is T2, human Nox2 (Homo sapiens, UniProt P04839).
T2 construct: made in house; host or cells: transgenic Drosophila (Duox knockdown, Da-GAL4 driven UAS-hNOX2); membrane-enriched fly homogenate
T2 sequence (P04839 2-570 limits assumed): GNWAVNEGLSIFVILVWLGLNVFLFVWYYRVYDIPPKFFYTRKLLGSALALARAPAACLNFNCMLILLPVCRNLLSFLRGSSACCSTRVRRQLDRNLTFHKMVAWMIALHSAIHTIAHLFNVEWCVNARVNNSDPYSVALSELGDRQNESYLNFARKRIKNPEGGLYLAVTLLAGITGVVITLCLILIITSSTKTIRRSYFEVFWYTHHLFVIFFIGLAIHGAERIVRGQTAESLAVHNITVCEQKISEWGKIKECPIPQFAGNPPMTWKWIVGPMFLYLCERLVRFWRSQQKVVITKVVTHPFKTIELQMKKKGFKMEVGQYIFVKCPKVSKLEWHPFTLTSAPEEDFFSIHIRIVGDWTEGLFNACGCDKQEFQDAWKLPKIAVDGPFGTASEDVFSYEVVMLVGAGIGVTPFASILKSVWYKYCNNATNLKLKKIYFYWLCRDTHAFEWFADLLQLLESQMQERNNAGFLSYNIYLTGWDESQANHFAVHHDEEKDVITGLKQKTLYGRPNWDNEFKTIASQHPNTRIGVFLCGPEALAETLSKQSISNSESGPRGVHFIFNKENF
Briefly: Nox inhibitor screening, Drosophila membranes over-expressing human Nox2, ROS chemiluminescence. It is filed as biochemical. The settings on record: hNox2 Drosophila membranes.

Data set [1] can be described thus: Pharmacokinetics after IV and oral administration to rats. The data set is classed as in vivo. How it is done: Supplementary Table S1. Pharmacokinetic parameters of Ewha-89403 following IV and oral administration at the doses of 1 mg/kg and 10 mg/kg, respectively, to rats (n=4-5) PK Parameters IV Injection Oral Administration
Absolute Bioavailability (BA) = 4.3 %
Supplementary Table S2. Pharmacokinetic parameters of Ewha-18278 following IV and oral administration at the doses of 2 mg/kg and 20 mg/kg, respectively, to rats (n=5-6) […]
Absolute Bioavailability (BA) = 63.8 %

In the next data set the target is T3, human Nox4 (Homo sapiens, UniProt Q9NPH5).
T3 construct: made in house; host or cells: transgenic Drosophila (Duox knockdown, Da-GAL4 driven UAS-hNOX4); membrane-enriched fly homogenate
T3 sequence (Q9NPH5 1-578): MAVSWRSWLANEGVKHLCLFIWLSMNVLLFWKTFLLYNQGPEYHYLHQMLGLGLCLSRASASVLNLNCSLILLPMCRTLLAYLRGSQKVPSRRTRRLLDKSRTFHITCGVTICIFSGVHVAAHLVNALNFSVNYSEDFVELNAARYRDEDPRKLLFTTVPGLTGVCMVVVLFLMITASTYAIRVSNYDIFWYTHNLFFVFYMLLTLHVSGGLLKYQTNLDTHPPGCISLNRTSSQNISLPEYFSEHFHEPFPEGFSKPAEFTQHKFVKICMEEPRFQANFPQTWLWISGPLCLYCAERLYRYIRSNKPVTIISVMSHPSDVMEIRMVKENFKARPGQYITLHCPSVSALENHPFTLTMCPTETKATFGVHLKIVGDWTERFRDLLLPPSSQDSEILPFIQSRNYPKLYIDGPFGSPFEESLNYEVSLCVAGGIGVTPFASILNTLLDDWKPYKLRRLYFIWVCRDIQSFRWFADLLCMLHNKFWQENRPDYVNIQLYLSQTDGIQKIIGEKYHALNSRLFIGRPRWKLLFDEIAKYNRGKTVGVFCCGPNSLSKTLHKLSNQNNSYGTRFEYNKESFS
Briefly: Nox inhibitor screening, Drosophila membranes over-expressing human Nox4, ROS chemiluminescence. It is filed as biochemical. The settings on record: hNox4 Drosophila membranes.

xanthine oxidase, sequence (P80457 2-1332): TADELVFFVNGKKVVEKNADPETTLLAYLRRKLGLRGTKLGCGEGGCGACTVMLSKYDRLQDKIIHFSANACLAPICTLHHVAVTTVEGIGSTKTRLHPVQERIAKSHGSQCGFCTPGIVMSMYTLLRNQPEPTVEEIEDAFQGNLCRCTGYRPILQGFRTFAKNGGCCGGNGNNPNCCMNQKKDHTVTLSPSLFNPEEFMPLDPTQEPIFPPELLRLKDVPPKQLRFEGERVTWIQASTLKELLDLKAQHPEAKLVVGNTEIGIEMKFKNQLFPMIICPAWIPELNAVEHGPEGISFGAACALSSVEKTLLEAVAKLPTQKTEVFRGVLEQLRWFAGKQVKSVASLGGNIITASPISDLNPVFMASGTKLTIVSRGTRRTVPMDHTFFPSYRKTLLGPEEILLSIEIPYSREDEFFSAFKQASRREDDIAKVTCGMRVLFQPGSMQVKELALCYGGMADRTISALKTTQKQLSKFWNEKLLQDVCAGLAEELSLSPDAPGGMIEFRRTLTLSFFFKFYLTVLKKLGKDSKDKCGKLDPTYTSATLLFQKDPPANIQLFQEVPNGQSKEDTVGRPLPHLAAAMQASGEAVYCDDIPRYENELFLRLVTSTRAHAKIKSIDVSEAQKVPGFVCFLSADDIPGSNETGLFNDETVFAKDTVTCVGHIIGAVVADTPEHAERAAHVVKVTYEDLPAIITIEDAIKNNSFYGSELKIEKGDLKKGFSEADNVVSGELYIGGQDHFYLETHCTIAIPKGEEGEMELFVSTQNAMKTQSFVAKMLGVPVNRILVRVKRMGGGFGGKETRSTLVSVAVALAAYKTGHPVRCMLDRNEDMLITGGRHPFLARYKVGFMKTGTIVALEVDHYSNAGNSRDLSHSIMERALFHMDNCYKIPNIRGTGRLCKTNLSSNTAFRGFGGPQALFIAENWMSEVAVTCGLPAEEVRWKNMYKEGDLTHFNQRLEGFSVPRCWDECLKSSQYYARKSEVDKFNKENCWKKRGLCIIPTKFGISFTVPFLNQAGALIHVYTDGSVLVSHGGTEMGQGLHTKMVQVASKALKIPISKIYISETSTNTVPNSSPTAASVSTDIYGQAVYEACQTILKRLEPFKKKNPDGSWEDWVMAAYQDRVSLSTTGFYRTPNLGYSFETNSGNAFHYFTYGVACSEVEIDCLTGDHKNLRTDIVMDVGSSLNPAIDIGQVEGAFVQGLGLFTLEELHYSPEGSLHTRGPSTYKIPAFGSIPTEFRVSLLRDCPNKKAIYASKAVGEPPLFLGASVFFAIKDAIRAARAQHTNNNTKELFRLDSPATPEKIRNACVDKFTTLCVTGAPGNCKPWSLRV
glucose oxidase, sequence (P13006 17-605, species assumed): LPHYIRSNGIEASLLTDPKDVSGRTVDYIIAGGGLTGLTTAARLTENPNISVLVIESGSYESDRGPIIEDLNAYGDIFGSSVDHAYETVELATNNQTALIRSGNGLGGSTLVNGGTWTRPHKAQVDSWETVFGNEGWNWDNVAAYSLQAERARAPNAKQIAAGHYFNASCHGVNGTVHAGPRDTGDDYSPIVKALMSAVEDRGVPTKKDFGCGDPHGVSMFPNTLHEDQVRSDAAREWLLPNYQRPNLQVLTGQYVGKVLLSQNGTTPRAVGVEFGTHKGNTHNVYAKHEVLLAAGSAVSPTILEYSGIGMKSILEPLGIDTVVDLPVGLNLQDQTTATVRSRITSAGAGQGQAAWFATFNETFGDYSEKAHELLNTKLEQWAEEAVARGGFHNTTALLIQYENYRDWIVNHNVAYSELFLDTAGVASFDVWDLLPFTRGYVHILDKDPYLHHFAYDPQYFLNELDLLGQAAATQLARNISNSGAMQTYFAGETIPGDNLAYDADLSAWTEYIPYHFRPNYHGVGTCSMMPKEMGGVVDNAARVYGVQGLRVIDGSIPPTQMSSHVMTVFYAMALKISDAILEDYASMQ
Description for human Nox1: (§1) Purified Drosophila membranes expressing human Nox1, Nox2, or Nox4 were used to monitor ROS production by determining the oxidation of lucigenin, evident as chemiluminescence, in the absence or presence of chemical compound[18].
(§2) Drosophila membranes specifically overexpressing hNox1, hNox2, and hNox4 were subjected into ROS measurement with Diogene.
(§3) The genotypes used were human Nox1 (UAS-hNOX1/UAS-DUOX-RNAi; Da-GAL4/+), Nox2 (UAS-hNOX2/UAS-DUOX-RNAi; Da-GAL4/+) and Nox4 (UAS-hNOX4/UAS-DUOX-RNAi; Da-GAL4/+). Transgenic flies were homogenated with ice-cold PBS containing protease inhibitors and membrane-enriched human Nox1, 2, or 4 were harvested. Membranes containing human Nox1, 2, or 4 served to monitor ROS production by lucigenin chemiluminescence in the absence or presence of chemical compound[18].
Description for human Nox2: as §1, §2, §3
Description for human Nox4: as §1, §2, §3

In the case of `Oc1cc(-c2ccccc2)nn1-c1ccccn1` [Ewha-89403, 3-phenyl-1-(pyridin-2-yl)-1H-5-hydroxypyrazole], the “inhibitory activity on xanthine oxidase” value against xanthine oxidase is “no inhibitory activities”. The Ki on human Nox1 worked out at 1450 nM. Also, on glucose oxidase, the “inhibitory activity on glucose oxidase” value is given as “no inhibitory activities”. Further, the Ki on human Nox2 amounted to 2570 nM. In addition, the Clt in data set [1] (IV 1 mg/kg) came out at 1277 ± 162.1 mL/h. Further, in data set [1] (rat, in vivo, IV 1 mg/kg), the AUC(0-inf) was found to be 418 ± 56 ng·h/mL, the AUC(0-t) came out at 343 ± 45 ng·h/mL, the C0 was 2520 ± 837 ng/mL and the Vd was 2.64 ± 1.41 L. This molecule also showed a half-life in data set [1] (rat, in vivo, IV 1 mg/kg) of 1.43 ± 0.723 h. Also, the bioavailability in data set [1] (rat, in vivo, IV 1 mg/kg and oral 10 mg/kg, read-out: Absolute Bioavailability (BA)) is 4.3%. Besides, in data set [1] (rat, in vivo, oral 10 mg/kg), the AUC(0-inf) turned out to be 302 ± 133 ng·h/mL, the AUC(0-t) worked out at 149 ± 39 ng·h/mL, the Cmax is 194 ± 54 ng/mL and the Tmax turned out to be 6.12 ± 2.34 min. In data set [1] (rat, in vivo, oral 10 mg/kg), this molecule showed a half-life of 3.3 ± 2.08 h. Further, the Ki at human Nox4 amounted to 3120 nM.
